Entries after “also recorded” stand apart in the source; their conditions may differ.
What was measured:
[1] = Body weights of male F344 rats fed the experimental diets; type: in vivo; details: for Body wt, Initial (Wk 0) / Body wt, wk 4 / Body wt, wk 8 / Body wt, wk 16 / Body wt, wk 22 / Body wt, wk 30 / Body wt, wk 37 (at termination): 25 ppm in diet, Mean ± SD
Source text: (§1) Experimental Procedure. Male F344 rats received at weaning were quarantined for 10 days and given access to AIN-76A semipurified diet (control diet). They were then be randomly allocated by weight to one of three dietary groups (control diet and 25 ppm BSC and 25 ppm benzylthiocyanate ("BTC") diets). […] Therefore one of our goals was to compare BSC with its sulfur analog BTC. Each dietary group was divided into AOM-treated (27 animals per subgroup) and vehicle-treated (12 animals per subgroup) subgroups and housed in plastic cages with filter tops in the animal holding room under controlled environmental conditions.
(§2) Beginning at 5 wk of age, groups of rats fed the control diet were transferred to diets containing 25 ppm BSC or 25 ppm BTC. At 7 wk of age, the animals in each group, except the vehicle-treated controls, received two weekly s.c. injections of AOM at a dose level of 15 mg/kg body weight/wk. Vehicle controls were treated with an equal volume of normal saline. One wk after AOM or saline treatment, animals receiving the BSC and BTC diets were transferred to the control diets and continued on this diet until the termination of the experiment. The 1-wk delay before transferring to control diet was to ensure complete metabolism and excretion of the carcinogen. The animals receiving the control diet continued on the same diet. The experiment was terminated 34 wk after the last AOM injection.
(§3) Body weights were recorded weekly until the animals reach 16 wk of age and then every 4 wk. Six vehicle-treated animals randomly chosen from each dietary group while they were consuming experimental and control diets were used for tissue and blood plasma glutathione peroxidase analysis.

[2] = tested on: azoxymethane-induced colon tumors; test: AOM-induced colon tumor incidence and multiplicity (initiation phase feeding); type: in vivo, male F344 rats
Source text: as §1, §2
(§4) Both AOM-and vehicle-treated animals were sacrificed by CO2 euthanasia. Following laparotomy, the entire stomach, small intestine, and large intestine were resected and opened longitudinally, and the contents flushed with normal saline. The location, number, and size of the colon and small intestinal tumors were noted grossly under the dissection microscope. All other organs, including liver and kidneys, were also examined grossly for tumors. Tissues were fixed in 10% buffered formalin, embedded in paraffin blocks, and processed by routine histological methods with the use of eosin and hematoxylin stains.
(§5) Statistical Analysis. The data on tumor incidence were analyzed statistically by the x^2 method and Fischer's exact probability test, and tumor multiplicity was analyzed by Student's t test. Biochemical results were analyzed by Student's t test.
(§6) Using the above-identified procedures, a study was made of the effect of feeding benzylselenocyanate and its sulfur analogue, benzylthiocyanate, two (2) weeks before, during and until one (1) week after carcinogen administration (initiation phase) on intestinal carcinogenesis induced by azoxymethane (CAS: 25843-45-2) in male F344 rats.

[3] = tested on: azoxymethane-induced small intestinal tumors; test: AOM-induced small intestinal tumor incidence and multiplicity; type: in vivo, male F344 rats
Source text: as §1, §2, §4, §5, §6

[4] = tested on: azoxymethane-induced ear duct tumors; test: AOM-induced ear duct tumor incidence; type: in vivo, male F344 rats; details: 25 ppm in diet; AOM treated
Source text: as §1, §2
Both AOM-and vehicle-treated animals were sacrificed by CO2 euthanasia. Following laparotomy, the entire stomach, small intestine, and large intestine were resected and opened longitudinally, and the contents flushed with normal saline. The location, number, and size of the colon and small intestinal tumors were noted grossly under the dissection microscope. All other organs, including liver and kidneys, were also examined grossly for tumors. […]
as §5

[5] = tested on: azoxymethane-induced metastasis; test: AOM-induced metastasis; type: in vivo, male F344 rats
Source text: as §1, §2, §4

[6] = tested on: selenium-dependent glutathione peroxidase; test: Selenium-dependent glutathione peroxidase activity in tissues of rats fed the diets; type: in vivo, male F344 rats
Protocol: as §3
Biochemical Determination. For the determination of tissue and blood plasma glutathione peroxidase activity, 6 vehicle-treated animals from each dietary group, while the animals were on experimental and control diets, were used. Before sacrificing the animals, blood was obtained under ether anesthesia by cardiac puncture with a syringe. They were then decapitated,and liver, kidneys, small intestine, and colon were rapidly removed. The liver was perfused with ice-cold normal saline. The small intestine and colon were slit open longitudinally and freed from all the contents, and the mucosa was scraped with a microscope glass slide. The liver and kidneys were trimmed free of connective tissue, minced with scissors, and homogenized for 10 s in 3 volumes of buffer, pH 7.3 (0.25 sucrose-10 mM EDTA-50 mM potassium phosphate) using a Brinkman Polytron at low speed. The colonic and small intestinal mucosal scrapings were immediately placed into 3 volumes of the same buffer and homogenized similarly. The homogenates were centrifuged in a Sorvall RC-2B centrifuge at 10,000×g, 4° C., for 20 min. The supernatant was centrifuged in a Beckman Ultracentrifuge at 100,000×g, 4° C., for 1 h. The resulting cytosol fraction was used for determination of glutathione peroxidase activity and protein.
Glutathione peroxidase activity was determined spectrophotometrically according to a modification of the enzyme-coupled assay procedure of Paglia and Valentine. The reaction mixture consisted of 50 mM potassium phosphate buffer (pH 7.0), 1 mM EDTA, 0.2 mM NADPH, 1 enzyme unit/ml oxidized glutathione-reductase, 1 mM glutathione, and 1.5 mM cumene hydroperoxide in a total volume of 1 ml. The cytosol was added to the above mixture and allowed to incubate 5 min. at room temperature. Total glutathione peroxide was measured with cumene hydroperoxide as a substrate. Selenium-dependent glutathione peroxide was measured with tert-butyl hydroperoxide. The reaction was started with the addition of substrate solution. Absorbance was measured at 340 nm, and activity was measured from the slope of the lines as mol NADPH oxidized/min/mg protein. Blank reactions without cytosol were run simultaneously. Protein concentration in the cytosol fraction was measured by the method of Lowry et al. with bovine serum albumin as standard.
as §5

[7] = tested on: non-selenium-dependent glutathione peroxidase; test: Non-selenium-dependent glutathione peroxidase activity in tissues of rats fed the diets; type: in vivo, male F344 rats; details: among the dietary groups
Protocol: as §3
Biochemical Determination. For the determination of tissue and blood plasma glutathione peroxidase activity, 6 vehicle-treated animals from each dietary group, while the animals were on experimental and control diets, were used. Before sacrificing the animals, blood was obtained under ether anesthesia by cardiac puncture with a syringe. They were then decapitated,and liver, kidneys, small intestine, and colon were rapidly removed. The liver was perfused with ice-cold normal saline. […]
Glutathione peroxidase activity was determined spectrophotometrically according to a modification of the enzyme-coupled assay procedure of Paglia and Valentine. […] Total glutathione peroxide was measured with cumene hydroperoxide as a substrate. Selenium-dependent glutathione peroxide was measured with tert-butyl hydroperoxide. […] Absorbance was measured at 340 nm, and activity was measured from the slope of the lines as mol NADPH oxidized/min/mg protein. […] Protein concentration in the cytosol fraction was measured by the method of Lowry et al. with bovine serum albumin as standard.

[8] = General toxicity observation in rats fed the diets; type: in vivo, male F344 rats; details: 25 ppm in diet
Source text: as §1, §2, §3

LD50 in rats = details: rat, in vivo
Source text: (§7) The instant invention may open new approaches to the development of effective and less toxic novel selenium-containing chemopreventive agents. For example, although is too early to determine definitively the optimum dose which will be suitable for human use, we can estimate a dose based on the LD50 of BSC in rats (lethal dose at which 50% of the rats die). […] An order of magnitude of ten (10) times less than the LD50 may be appropriate for humans.

[9] = LD50 in humans, extrapolated from rats; set-up: unit not given here; details: extrapolated: 125×70^0.75
Source text: as §7

[10] = tested on: benzo(a) pyrene-induced forestomach tumors; details: mice; cited from earlier work
[11] = 25 ppm in diet 2 wk before to 1 wk after AOM
[12] = 25 ppm in diet, 27 (BSC) or 26 (BTC) animals/group
[13] = 25 ppm in diet 5 wk, Mean ± SE (n = 6)

N#C[Se]Cc1ccccc1 [BSC, benzylselenocyanate]
Body weights of animals fed experimental vs control diets ([1]; AOM or vehicle treated, in words): comparable | Body wt, Initial (Wk 0) ([1]; AOM treated): 40 ± 4 g | Body wt, wk 4 ([1]; AOM treated): 174 ± 9 g | Body wt, wk 8 ([1]; AOM treated): 279 ± 15 g | Body wt, wk 16 ([1]; AOM treated): 348 ± 16 g | Body wt, wk 22 ([1]; AOM treated): 390 ± 21 g | Body wt, wk 30 ([1]; AOM treated): 430 ± 20 g | Body wt, wk 37 (at termination) ([1]; AOM treated): 449 ± 22 g | Body wt, Initial (Wk 0) ([1]; Vehicle treated): 41 ± 4 g | Body wt, wk 4 ([1]; Vehicle treated): 179 ± 12 g | Body wt, wk 8 ([1]; Vehicle treated): 284 ± 19 g | Body wt, wk 16 ([1]; Vehicle treated): 364 ± 19 g | Body wt, wk 22 ([1]; Vehicle treated): 402 ± 20 g | Body wt, wk 30 ([1]; Vehicle treated): 448 ± 26 g | Body wt, wk 37 (at termination) ([1]; Vehicle treated): 467 ± 21 g | Colon tumor incidence, Adenocarcinoma [2, 11]: 11 % of animals with tumors | Colon tumor incidence, Adenoma [2, 11]: 44 % of animals with tumors | Colon tumor incidence, Total (adenomas plus adenocarcinomas) [2, 11]: 48 % of animals with tumors | Number of animals with colon tumors, Adenocarcinoma [2, 12]: 3 number of animals | Number of animals with colon tumors, Adenoma [2, 12]: 12 number of animals | Number of animals with colon tumors, Total [2, 12]: 13 number of animals | Colon tumor multiplicity, Adenocarcinoma ([2]; 25 ppm in diet, Mean ± SD): 0.11 ± 0.3 no. of tumors/animals | Colon tumor multiplicity, Adenoma ([2]; 25 ppm in diet, Mean ± SD): 0.70 ± 0.9 no. of tumors/animals | Colon tumor multiplicity, Total ([2]; 25 ppm in diet, Mean ± SD): 0.81 ± 1.0 no. of tumors/animals | Number of tumors per group, colon Adenocarcinoma ([2]; 25 ppm in diet, in parentheses): 3 number of tumors per group | Inhibition of AOM-induced colon tumors (in words) ([2]; initiation phase of carcinogenesis): inhibits AOM-induced tumors in the colon; also recorded: inhibited colon tumors during the initiation phase of carcinogenesis | Incidence of adenocarcinomas of the colon (in words) ([2]; vs control diet): significantly lower in rats fed the BSC diet than in those fed the control diet; also recorded: significantly inhibits | Incidence of total colon tumors (in words) ([2]; vs control diet): significantly lower in rats fed the BSC diet than in those fed the control diet | Number of colon adenocarcinomas per animal (in words) ([2]; vs control diet and BTC diet): significally inhibited in animals fed the BSC diet compared to those fed the control diet and BTC diet; also recorded: significantly inhibits | Number of total colon tumors per animal (in words) ([2]; vs control diet and BTC diet): significally inhibited in animals fed the BSC diet compared to those fed the control diet and BTC diet | Multiplicity of colon adenomas (in words) ([2]; vs control diet and BTC diet, not statistically significant): slight inhibition of multiplicity of adenomas in the BSC diet as compared to the control diet and BTC diet | Small intestinal tumor incidence, Adenocarcinoma [3, 11]: 15 % of animals with tumors | Small intestinal tumor incidence, Adenoma [3, 11]: 4 % of animals with tumors | Small intestinal tumor incidence, Total [3, 11]: 19 % of animals with tumors | Number of animals with small intestinal tumors, Adenocarcinoma [3, 12]: 4 number of animals | Number of animals with small intestinal tumors, Adenoma [3, 12]: 1 number of animals | Number of animals with small intestinal tumors, Total [3, 12]: 5 number of animals | Small intestinal tumor multiplicity, Adenocarcinoma ([3]; 25 ppm in diet, Mean ± SD): 0.15 0.3 no. of tumors/animal | Small intestinal tumor multiplicity, Adenoma ([3]; 25 ppm in diet, Mean ± SD): 0.04 0.2 no. of tumors/animal | Small intestinal tumor multiplicity, Total ([3]; 25 ppm in diet, Mean ± SD): 0.19 0.3 no. of tumors/animal | Incidence of small intestinal adenocarcinomas (in words) ([3]; differences among groups not significant): slightly reduced the incidence of small intestinal adenocarcinomas | Inhibition of AOM-induced tumors in the small intestine (in words) ([3]; rat, in vivo): to a certain extent, in the small intestine | Small intestinal tumor multiplicity, total (in words) ([3]; vs BTC diet and control diet): significantly inhibited in animals fed the BSC diet compared to those fed the BTC diet and control diet | Multiplicity of small intestinal adenocarcinomas (in words) ([3]; vs control diet): significant inhibition in the multiplicity of small intestinal adenocarcinomas; also recorded: significantly inhibits | % of animals with ear duct tumors [4]: 7 % of animals | No. of animals with metastasis ([5]; 25 ppm in diet, AOM treated): 0 No. of animals | AOM-induced metastasis (in words) ([5]; several organs): inhibits AOM-induced metastasis in several organs; also recorded: none of the animals in BSC and BTC diet groups developed metastasis | Selenium-dependent glutathione peroxidase activity, Kidney [6, 13]: 1.70 0.29 μmol NADPH oxidized/min/mg protein | Selenium-dependent glutathione peroxidase activity, Liver [6, 13]: 1.88 0.60 μmol NADPH oxidized/min/mg protein | Selenium-dependent glutathione peroxidase activity, Plasma [6, 13]: 0.78 0.14 μmol NADPH oxidized/min/mg protein | Selenium-dependent glutathione peroxidase activity, Colon ([6]; 25 ppm in diet 5 wk, colonic mucosa, Mean ± SE (n = 6)): 0.56 0.14 μmol NADPH oxidized/min/mg protein | Selenium-dependent glutathione peroxidase activity, Small intestine ([6]; 25 ppm in diet 5 wk, small intestinal mucosa, Mean ± SE (n = 6)): 0.71 0.13 μmol NADPH oxidized/min/mg protein | Selenium-dependent glutathione peroxidase activity (in words) ([6]; kidney, colon and small intestine): increase in selenium-dependent glutathione peroxidase activity in the kidney, colon, and small intestine; also recorded: significant increase in the enzyme activity in kidney and colonic and small intestinal mucosae of animals fed the BSC diet compared to that in those animals fed the BTC diet and control diet | Selenium-dependent glutathione peroxidase activity (in words) ([6]; liver and plasma): no effect on this enzyme activity in the liver and plasma; also recorded: not affected | Non-selenium-dependent glutathione peroxidase activity (in words) [7]: no differences in the activity of non-selenium-dependent glutathione peroxidase activity among the dietary groups | Evidence of toxicity in animals fed the diet [8]: no evidence of toxicity | LD50 (LD50 in rats): 125 mg/kg | approximate LD50 in humans [9]: ~3025 | Inhibition of benzo(a)pyrene-induced forestomach tumors [10]: effective inhibitors of benzo(a) pyrene-induced forestomach tumors in mice

From patent publication US4988517A, “Method and composition for inhibiting colon carcinogenesis” (American Health Foundation, priority 1988, dated 1991)
